Reference: article PMC5218480 (PLoS ONE, 2017)

Test system: MV-4-11 cells
Experiment: Gene expression microarray analysis (Affymetrix PrimeView) and GSEA
Assay type: cell-based, human
Set-up: RFU PODN (11730768_x_at) / Fold change /veh PODN (11730768_x_at) / RFU LINC00158 (11744669_a_at) / Fold change /veh LINC00158 (11744669_a_at) / RFU DUSP10 (11751237_a_at) / Fold change /veh DUSP10 (11751237_a_at) / RFU ID3 (11757404_x_at) / Fold change /veh ID3 (11757404_x_at) / RFU PLEKHG5 (11737974_s_at) / Fold change /veh PLEKHG5 (11737974_s_at) / RFU LRRC4B (11730491_at) / Fold change /veh LRRC4B (11730491_at) / RFU GIMAP4 (11747438_a_at) / Fold change /veh GIMAP4 (11747438_a_at) / RFU KRT8 (11758183_x_at) / Fold change /veh KRT8 (11758183_x_at) / RFU CNN1 (11734310_a_at) / Fold change /veh CNN1 (11734310_a_at) / RFU VPS37D (11726825_at) / Fold change /veh VPS37D (11726825_at) / RFU C10orf10 (11716522_x_at) / Fold change /veh C10orf10 (11716522_x_at) / RFU KIR2DL2 /// KIR2DL4 /// KIR2DL5A /// KIR2DL5B /// KIR2DS1 /// KIR2DS2 /// KIR2DS3 /// KIR2DS4 /// KIR3DL3 /// KIR3DL3 /// KIR3DS1 (11738374_at) / Fold change /veh KIR2DL2 /// KIR2DL4 /// KIR2DL5A /// KIR2DL5B /// KIR2DS1 /// KIR2DS2 /// KIR2DS3 /// KIR2DS4 /// KIR3DL3 /// KIR3DL3 /// KIR3DS1 (11738374_at) / RFU C1QL1 (11718748_at) / Fold change /veh C1QL1 (11718748_at) / RFU TMPRSS4 (11747572_a_at) / Fold change /veh TMPRSS4 (11747572_a_at) / RFU HAMP (11756126_x_at) / Fold change /veh HAMP (11756126_x_at) / RFU RNFT2 (11725882_a_at) / Fold change /veh RNFT2 (11725882_a_at) / RFU NR4A2 (11747474_a_at) / Fold change /veh NR4A2 (11747474_a_at) / RFU ABCC12 (11746883_a_at) / Fold change /veh ABCC12 (11746883_a_at) / RFU TMEM136 (11760407_x_at) / Fold change /veh TMEM136 (11760407_x_at) / RFU CLDN22 /// WWC2 (11732394_at) / Fold change /veh CLDN22 /// WWC2 (11732394_at) / RFU HLA-DPB1 (11760878_x_at) / Fold change /veh HLA-DPB1 (11760878_x_at) / RFU SPINT1 (11716480_a_at) / Fold change /veh SPINT1 (11716480_a_at) / RFU GAP43 (11754022_s_at) / Fold change /veh GAP43 (11754022_s_at) / RFU A4GNT (11735810_at) / Fold change /veh A4GNT (11735810_at) / RFU PRB3 (11715151_x_at) / Fold change /veh PRB3 (11715151_x_at) / RFU TUBB4B (11761932_at) / Fold change /veh TUBB4B (11761932_at) / RFU CAPN14 (11732068_a_at) / Fold change /veh CAPN14 (11732068_a_at) / RFU TMCC2 (11721928_a_at) / Fold change /veh TMCC2 (11721928_a_at) / RFU IRGQ (11745062_a_at) / Fold change /veh IRGQ (11745062_a_at) / RFU FAM174B (11720279_a_at) / Fold change /veh FAM174B (11720279_a_at) / RFU TMPRSS4 (11748680_a_at) / Fold change /veh TMPRSS4 (11748680_a_at) / RFU FAM212B (11763350_a_at) / Fold change /veh FAM212B (11763350_a_at) / RFU PLEKHG5 (11743358_a_at) / Fold change /veh PLEKHG5 (11743358_a_at) / RFU ZSCAN30 (11745921_a_at) / Fold change /veh ZSCAN30 (11745921_a_at) / RFU CMKLR1 (11741424_a_at) / Fold change /veh CMKLR1 (11741424_a_at) / RFU LOC101060620 /// MAPK8IP1 (11723275_at) / Fold change /veh LOC101060620 /// MAPK8IP1 (11723275_at) / RFU SPTSSB (11747773_x_at) / Fold change /veh SPTSSB (11747773_x_at) / RFU PRSS12 (11739890_at) / Fold change /veh PRSS12 (11739890_at) / RFU BIN1 (11741810_x_at) / Fold change /veh BIN1 (11741810_x_at) / RFU WNT11 (11732464_a_at) / Fold change /veh WNT11 (11732464_a_at) / RFU C10orf10 (11716521_a_at) / Fold change /veh C10orf10 (11716521_a_at) / RFU C5orf56 (11738089_at) / Fold change /veh C5orf56 (11738089_at) / RFU CYB561 (11721691_x_at) / Fold change /veh CYB561 (11721691_x_at) / RFU ANKRD19P (11752326_a_at) / Fold change /veh ANKRD19P (11752326_a_at) / RFU OR2T12 /// OR2T33 /// OR2T8 (11738714_s_at) / Fold change /veh OR2T12 /// OR2T33 /// OR2T8 (11738714_s_at) / RFU VCAN (11748164_a_at) / Fold change /veh VCAN (11748164_a_at) / RFU JSRP1 (11732532_at) / Fold change /veh JSRP1 (11732532_at) / RFU KRTAP10-11 (11738290_x_at) / Fold change /veh KRTAP10-11 (11738290_x_at) / RFU MYO3A (11730013_a_at) / Fold change /veh MYO3A (11730013_a_at) / RFU EBF3 (11725865_a_at) / Fold change /veh EBF3 (11725865_a_at) / RFU CAMK2N1 (11719241_x_at) / Fold change /veh CAMK2N1 (11719241_x_at) / RFU C5orf56 (11738088_a_at) / Fold change /veh C5orf56 (11738088_a_at) / RFU OLFML3 (11715873_a_at) / Fold change /veh OLFML3 (11715873_a_at) / RFU LOC100653217 /// NTM (11731650_a_at) / Fold change /veh LOC100653217 /// NTM (11731650_a_at) / RFU MAPK11 (11762145_a_at) / Fold change /veh MAPK11 (11762145_a_at) / RFU FIZ1 (11724087_x_at) / Fold change /veh FIZ1 (11724087_x_at) / RFU OASL (11726364_x_at) / Fold change /veh OASL (11726364_x_at) / RFU SOX15 (11748057_x_at) / Fold change /veh SOX15 (11748057_x_at) / RFU CD79A (11719716_a_at) / Fold change /veh CD79A (11719716_a_at) / RFU HIST1H1D (11736915_at) / Fold change /veh HIST1H1D (11736915_at) / RFU CASKIN2 (11723855_a_at) / Fold change /veh CASKIN2 (11723855_a_at) / RFU LOC730098 (11760151_x_at) / Fold change /veh LOC730098 (11760151_x_at) / RFU OR4N2 (11742367_at) / Fold change /veh OR4N2 (11742367_at) / RFU PRRT2 (11749266_a_at) / Fold change /veh PRRT2 (11749266_a_at) / RFU SNX32 (11753110_a_at) / Fold change /veh SNX32 (11753110_a_at) / RFU CDHR5 (11726645_a_at) / Fold change /veh CDHR5 (11726645_a_at) / RFU RCAN1 (11760418_a_at) / Fold change /veh RCAN1 (11760418_a_at) / RFU FAM167A (11723789_a_at) / Fold change /veh FAM167A (11723789_a_at) / RFU FAM26E (11764081_at) / Fold change /veh FAM26E (11764081_at) / RFU ISYNA1 (11749810_s_at) / Fold change /veh ISYNA1 (11749810_s_at) / RFU ACY1 (11761880_at) / Fold change /veh ACY1 (11761880_at) / RFU 11764098_at / Fold change /veh 11764098_at / RFU SAMD14 (11745864_x_at) / Fold change /veh SAMD14 (11745864_x_at) / RFU NPB (11741838_a_at) / Fold change /veh NPB (11741838_a_at) / RFU TMPRSS6 (11731388_a_at) / Fold change /veh TMPRSS6 (11731388_a_at) / RFU KRTAP10-2 (11738614_at) / Fold change /veh KRTAP10-2 (11738614_at) / RFU ARHGAP8 /// PRR5-ARHGAP8 (11727945_x_at) / Fold change /veh ARHGAP8 /// PRR5-ARHGAP8 (11727945_x_at) / RFU KRTAP5-7 /// NADSYN1 (11734609_at) / Fold change /veh KRTAP5-7 /// NADSYN1 (11734609_at) / RFU RASL12 (11751679_a_at) / Fold change /veh RASL12 (11751679_a_at) / RFU CDKN2B (11736163_a_at) / Fold change /veh CDKN2B (11736163_a_at) / RFU PRF1 (11729649_at) / Fold change /veh PRF1 (11729649_at) / RFU, ZNF638 /// ZNF638-IT1 / Fold change vs veh, ZNF638 /// ZNF638-IT1 / RFU, PANK3 / Fold change vs veh, PANK3 / RFU, SH3YL1 / Fold change vs veh, SH3YL1 / RFU, ZEB2 / Fold change vs veh, ZEB2 / RFU, NRIP1 / Fold change vs veh, NRIP1 / RFU, PTTG1IP / Fold change vs veh, PTTG1IP / RFU, CAPN2 / Fold change vs veh, CAPN2 / RFU, MED14 / Fold change vs veh, MED14 / RFU, SNORA58 / Fold change vs veh, SNORA58 / RFU, C1orf63 / Fold change vs veh, C1orf63 / RFU, LRRFIP1 / Fold change vs veh, LRRFIP1 / RFU, NDUFAF7 / Fold change vs veh, NDUFAF7 / RFU, SLC12A2 / Fold change vs veh, SLC12A2 / RFU, IBTK / Fold change vs veh, IBTK / RFU, ESF1 / Fold change vs veh, ESF1 / Fold change vs veh, TMEM50B / RFU, TAOK1 / Fold change vs veh, TAOK1 / RFU, ACBD3 / Fold change vs veh, ACBD3 / RFU, TMA16 / Fold change vs veh, TMA16 / RFU, RWDD3 / Fold change vs veh, RWDD3 / RFU, BCAT1 / Fold change vs veh, BCAT1 / RFU, EDEM3 / Fold change vs veh, EDEM3 / RFU, TMEM33 / Fold change vs veh, TMEM33 / RFU, WDR75 / Fold change vs veh, WDR75 / RFU, AHCTF1 / Fold change vs veh, AHCTF1 / RFU, TFRC / Fold change vs veh, TFRC / RFU, ZDHHC17 / Fold change vs veh, ZDHHC17 / RFU, NOM1 / Fold change vs veh, NOM1 / RFU, ARL8B / Fold change vs veh, ARL8B / RFU, ZBTB11 / Fold change vs veh, ZBTB11 / RFU, TAMM41 / Fold change vs veh, TAMM41 / RFU, KIAA1704 /// LOC100996395 / Fold change vs veh, KIAA1704 /// LOC100996395 / RFU, ING1 / Fold change vs veh, ING1 / RFU, TRMT61B / Fold change vs veh, TRMT61B / RFU, FUBP3 / Fold change vs veh, FUBP3 / RFU, TP53 / Fold change vs veh, TP53 / RFU, TNKS2 / Fold change vs veh, TNKS2 / RFU, ZFP14 / Fold change vs veh, ZFP14 / RFU, ACTR2 / Fold change vs veh, ACTR2 / RFU, PPP3R1 / Fold change vs veh, PPP3R1 / RFU, PIK3R1 / Fold change vs veh, PIK3R1 / RFU, HNRNPA1 / Fold change vs veh, HNRNPA1 / RFU, RNF170 / Fold change vs veh, RNF170 / RFU, ZNF28 / Fold change vs veh, ZNF28 / RFU, RNGTT / Fold change vs veh, RNGTT / RFU, OGT / Fold change vs veh, OGT / RFU, BRD1 / Fold change vs veh, BRD1 / RFU, MARS / Fold change vs veh, MARS / RFU, ZNF655 / Fold change vs veh, ZNF655 / RFU, FAHD1 / Fold change vs veh, FAHD1 / RFU, BDP1 / Fold change vs veh, BDP1 / RFU, LRRCC1 / Fold change vs veh, LRRCC1 / RFU, ARID1A / Fold change vs veh, ARID1A / RFU, ZNF146 / Fold change vs veh, ZNF146 / RFU, ZNF330 / Fold change vs veh, ZNF330 / RFU, GPN3 / Fold change vs veh, GPN3 / RFU, C9orf123 / Fold change vs veh, C9orf123 / RFU, N4BP2L2 / Fold change vs veh, N4BP2L2 / RFU, ARFIP1 / Fold change vs veh, ARFIP1 / RFU, FAM179B / Fold change vs veh, FAM179B / RFU, BCL10 / Fold change vs veh, BCL10 / RFU, UHRF1BP1L / Fold change vs veh, UHRF1BP1L / RFU, BET1 / Fold change vs veh, BET1 / RFU, CNOT2 / Fold change vs veh, CNOT2 / RFU, ZNF268 / Fold change vs veh, ZNF268 / Fold change vs veh, ZNF507 / RFU, DGCR2 / Fold change vs veh, DGCR2 / RFU, WDSUB1 / Fold change vs veh, WDSUB1 / Fold change vs veh, HSP90B1 /// MIR3652 / RFU, ADSS / Fold change vs veh, ADSS / RFU, GK / Fold change vs veh, GK / RFU, ZNF148 / Fold change vs veh, ZNF148 / RFU, TAF9 / Fold change vs veh, TAF9 / RFU, SLC1A5 / Fold change vs veh, SLC1A5 / RFU, SLMO2 / Fold change vs veh, SLMO2 / RFU, ABCC4 / Fold change vs veh, ABCC4 / RFU, LOC101060439 /// RAP1B / Fold change vs veh, LOC101060439 /// RAP1B / RFU, RFX7 / Fold change vs veh, RFX7 / RFU, GTPBP10 / Fold change vs veh, GTPBP10 / RFU, CNEP1R1 / Fold change vs veh, CNEP1R1 / RFU, BIVM-ERCC5 /// ERCC5 / Fold change vs veh, BIVM-ERCC5 /// ERCC5 / RFU, ILF3 / Fold change vs veh, ILF3 / RFU 11762660_at / Fold change /veh 11762660_at / RFU VCAN (11757783_s_at) / Fold change /veh VCAN (11757783_s_at) / RFU DDX43 (11728927_at) / Fold change /veh DDX43 (11728927_at) / RFU KRT8 (11758188_x_at) / Fold change /veh KRT8 (11758188_x_at) / RFU NKD1 (11759106_at) / Fold change /veh NKD1 (11759106_at) / RFU SRD5A1 (11742802_a_at) / Fold change /veh SRD5A1 (11742802_a_at) / RFU TPSAB1 /// TPSB2 (11721975_s_at) / Fold change /veh TPSAB1 /// TPSB2 (11721975_s_at) / RFU GSTM3 (11746129_a_at) / Fold change /veh GSTM3 (11746129_a_at) / RFU IL23R (11737362_x_at) / Fold change /veh IL23R (11737362_x_at) / RFU TMEM51 (11727254_a_at) / Fold change /veh TMEM51 (11727254_a_at) / RFU PIWIL2 (11732686_x_at) / Fold change /veh PIWIL2 (11732686_x_at) / RFU ORM1 (11744905_x_at) / Fold change /veh ORM1 (11744905_x_at) / RFU CCDC152 (11743942_at) / Fold change /veh CCDC152 (11743942_at) / RFU ECM1 (11717891_a_at) / Fold change /veh ECM1 (11717891_a_at) / RFU IL23R (11748794_a_at) / Fold change /veh IL23R (11748794_a_at) / RFU TNFAIP8L3 (11732012_x_at) / Fold change /veh TNFAIP8L3 (11732012_x_at) / RFU MBOAT4 (11741988_at) / Fold change /veh MBOAT4 (11741988_at) / RFU 11764193_at / Fold change /veh 11764193_at / RFU TMEM53 (11763286_at) / Fold change /veh TMEM53 (11763286_at) / RFU MAGEB2 (11727129_at) / Fold change /veh MAGEB2 (11727129_at) / RFU TMEM200A (11744735_a_at) / Fold change /veh TMEM200A (11744735_a_at) / RFU CCDC152 (11751479_a_at) / Fold change /veh CCDC152 (11751479_a_at) / RFU FAM211A (11726209_a_at) / Fold change /veh FAM211A (11726209_a_at) / RFU RGS16 (11746705_a_at) / Fold change /veh RGS16 (11746705_a_at) / RFU VCAN (11755009_s_at) / Fold change /veh VCAN (11755009_s_at) / RFU RHOB (11743442_s_at) / Fold change /veh RHOB (11743442_s_at) / RFU RGS16 (11720943_a_at) / Fold change /veh RGS16 (11720943_a_at) / RFU RGS16 (11720944_at) / Fold change /veh RGS16 (11720944_at) / RFU, VPS4B / Fold change vs veh, VPS4B / RFU, CREB1 / Fold change vs veh, CREB1 / RFU, DNAJC13 / Fold change vs veh, DNAJC13 / RFU, GNAQ / Fold change vs veh, GNAQ / RFU, CDK5R1 / Fold change vs veh, CDK5R1 / RFU, ZRANB3 / Fold change vs veh, ZRANB3 / RFU, CUL4A / Fold change vs veh, CUL4A / RFU, CCNY / Fold change vs veh, CCNY / RFU, UFL1 / Fold change vs veh, UFL1 / RFU, COG3 / Fold change vs veh, COG3 / RFU, DIAPH2 / Fold change vs veh, DIAPH2 / RFU, SKA2 / Fold change vs veh, SKA2 / RFU, AFF3 / Fold change vs veh, AFF3 / RFU, LMF1 / Fold change vs veh, LMF1 / RFU, IPO11 / Fold change vs veh, IPO11 / RFU, DFFB / Fold change vs veh, DFFB / RFU, FOXP1 / Fold change vs veh, FOXP1 / RFU, CARD8 / Fold change vs veh, CARD8 / RFU, STRN3 / Fold change vs veh, STRN3 / RFU, ADK / Fold change vs veh, ADK / RFU, RASSF2 / Fold change vs veh, RASSF2 / RFU, WIPF1 / Fold change vs veh, WIPF1 / RFU, LARP1B / Fold change vs veh, LARP1B / RFU, RASA1 / Fold change vs veh, RASA1 / RFU, RB1 / Fold change vs veh, RB1 / RFU, PPFIA1 / Fold change vs veh, PPFIA1 / RFU, MAT2A / Fold change vs veh, MAT2A / RFU, CCT5 / Fold change vs veh, CCT5 / RFU, WDR92 / Fold change vs veh, WDR92 / RFU, CUX1 / Fold change vs veh, CUX1 / RFU, TTC7A / Fold change vs veh, TTC7A / RFU, TMEM135 / Fold change vs veh, TMEM135 / RFU, DEPTOR / Fold change vs veh, DEPTOR / RFU, CPM / Fold change vs veh, CPM / RFU, DNAJB6 / Fold change vs veh, DNAJB6 / RFU, CACNA2D3 / Fold change vs veh, CACNA2D3 / RFU, DTX4 / Fold change vs veh, DTX4 / RFU, TFCP2 / Fold change vs veh, TFCP2 / RFU, GMCL1 /// GMCL1P1 / Fold change vs veh, GMCL1 /// GMCL1P1 / RFU, AEBP2 / Fold change vs veh, AEBP2 / RFU, SNHG1 /// SNORD22 /// SNORD25 /// SNORD26 /// SNORD27 /// SNORD28 /// SNORD29 /// SNORD31 / Fold change vs veh, SNHG1 /// SNORD22 /// SNORD25 /// SNORD26 /// SNORD27 /// SNORD28 /// SNORD29 /// SNORD31 / Fold change (Aza/veh), C12orf56 (ProbeSet 11735607_a_at) / Fold change (ACY-1035/veh), C12orf56 (ProbeSet 11735607_a_at) / Fold change (Aza/veh), FGFR1OP (ProbeSet 11751329_s_at) / Fold change (ACY-1035/veh), FGFR1OP (ProbeSet 11751329_s_at) / Fold change (Aza/veh), VPS36 (ProbeSet 11739960_a_at) / Fold change (ACY-1035/veh), VPS36 (ProbeSet 11739960_a_at) / RFU SYPL1 (11715823_x_at) / Fold change /veh SYPL1 (11715823_x_at) / RFU IGFBP7 (11715501_s_at) / Fold change /veh IGFBP7 (11715501_s_at) / RFU REEP3 (11722064_at) / Fold change /veh REEP3 (11722064_at) / RFU IGLL1 (11728026_x_at) / Fold change /veh IGLL1 (11728026_x_at): dose or concentration left out as unconfirmed
Conditions: MV-4-11 cells, 48 hours

For `Nc1ccc(-c2cccs2)cc1NC(=O)c1ccc2c(c1)cc(C1CC1)n2CCN1CCOCC1` [ACY-1035], the “Fold change /veh CAPN14 (11732068_a_at)” value was 1.08.
